Experiments:
[1] = biological target: HDAC3 (Homo sapiens, UniProt O15379); test: In vitro HDACs inhibition fluorescence assay; format: biochemical
[2] = system: Salmonella typhimurium strain (with modified TA100); settings: with liver S9 fraction activation
[3] = system: MV4–11 cells; test: Release profile by western blot after drug wash-out; format: cell-based; settings: MV4–11, 3 h treatment, up to 6 h, Figure 3B
[4] = biological target: HDAC1 (Homo sapiens, UniProt Q13547); test: In vitro HDACs inhibition fluorescence assay; format: biochemical; settings: IC50 curves after pre-incubation of 10, 30, 60 and 90 min, Figure 3A
[5] = system: NCI60 tumor cell lines; test: NCI60 tumor cell lines screen, whole panel; format: cell-based; settings: concentrations under 10 μM
[6] = system: RS4;11 cells; test: Western blot analysis; format: cell-based; settings: wt-p53 wt-FLT3 RS4;11, 24 h; 13a 200 nM, panobinostat 100 nM, vorinostat 5000 nM
[7] = system: MV4–11 cells; test: Western blot analysis; format: cell-based; settings: for increase in Hsp70 levels: 24 h, Figures 5A and C (MV4–11 and RS4;11); for pro-caspase3 cleavage / FLT3 and STAT5 levels: wt-p53 FLT3-ITD MV4–11, 24 h, Figure 5A
[8] = system: MV4–11 cells; test: EC50 analysis; format: cell-based; settings: MV4–11, 50 μM
[9] = biological target: T1, APN (CD13, microsomal aminopeptidase) (Sus scrofa, UniProt P15145); test: CD13 inhibition assay; format: biochemical, porcine; settings: 13a 50 μM and 10 μM, Figure S4
T1 sequence (P15145 1-963): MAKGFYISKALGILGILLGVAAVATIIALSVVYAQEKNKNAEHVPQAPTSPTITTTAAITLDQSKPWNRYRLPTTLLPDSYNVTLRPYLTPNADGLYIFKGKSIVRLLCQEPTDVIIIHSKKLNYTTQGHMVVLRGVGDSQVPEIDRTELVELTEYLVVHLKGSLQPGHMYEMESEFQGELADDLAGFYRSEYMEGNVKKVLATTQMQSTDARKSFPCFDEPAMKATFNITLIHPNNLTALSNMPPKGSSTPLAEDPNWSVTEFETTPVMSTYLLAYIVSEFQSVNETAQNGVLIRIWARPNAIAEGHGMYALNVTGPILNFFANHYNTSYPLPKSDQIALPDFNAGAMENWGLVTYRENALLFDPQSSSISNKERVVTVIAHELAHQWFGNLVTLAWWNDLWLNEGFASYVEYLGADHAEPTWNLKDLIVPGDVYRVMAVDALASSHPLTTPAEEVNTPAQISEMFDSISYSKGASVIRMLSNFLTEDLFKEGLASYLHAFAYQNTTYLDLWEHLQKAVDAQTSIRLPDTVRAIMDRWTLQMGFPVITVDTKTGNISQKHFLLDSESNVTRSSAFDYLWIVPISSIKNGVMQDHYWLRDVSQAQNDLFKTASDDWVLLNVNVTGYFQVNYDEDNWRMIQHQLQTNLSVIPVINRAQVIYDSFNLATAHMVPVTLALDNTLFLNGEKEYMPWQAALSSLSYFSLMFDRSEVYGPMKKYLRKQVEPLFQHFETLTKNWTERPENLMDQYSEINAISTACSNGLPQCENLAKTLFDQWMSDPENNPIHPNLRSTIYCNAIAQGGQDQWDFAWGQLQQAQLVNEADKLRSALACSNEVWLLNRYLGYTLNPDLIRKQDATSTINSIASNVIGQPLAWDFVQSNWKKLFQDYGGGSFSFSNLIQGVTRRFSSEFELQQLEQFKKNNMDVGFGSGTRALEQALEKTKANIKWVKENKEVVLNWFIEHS

[10] = system: MV4–11 cells; test: Combination index; format: cell-based; settings: MV4–11, 48 h, lower concentrations, Figure S8
[11] = system: SR cell line; test: Western blot analysis; format: cell-based; settings: wt-p53 SR, 24 h, Figure S7
[12] = system: HL60 cells; test: Western blot analysis; format: cell-based; settings: p53-null wt-FLT3 HL60, 24 h, Figure 5D

Sequence of HDAC3 (O15379 whole entry): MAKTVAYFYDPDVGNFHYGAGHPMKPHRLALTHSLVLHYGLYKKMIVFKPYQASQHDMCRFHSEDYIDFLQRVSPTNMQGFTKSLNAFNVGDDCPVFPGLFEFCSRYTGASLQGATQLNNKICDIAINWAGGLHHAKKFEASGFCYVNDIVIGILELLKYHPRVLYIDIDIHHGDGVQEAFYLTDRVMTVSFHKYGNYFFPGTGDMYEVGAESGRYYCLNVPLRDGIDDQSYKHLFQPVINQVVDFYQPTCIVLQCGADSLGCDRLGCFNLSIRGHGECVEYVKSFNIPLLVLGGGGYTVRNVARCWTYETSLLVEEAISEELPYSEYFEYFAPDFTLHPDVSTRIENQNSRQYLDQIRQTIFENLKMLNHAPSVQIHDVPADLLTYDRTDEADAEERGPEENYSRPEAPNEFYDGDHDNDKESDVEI
Sequence of HDAC3 (Q9Y618 395-489 partner limits assumed): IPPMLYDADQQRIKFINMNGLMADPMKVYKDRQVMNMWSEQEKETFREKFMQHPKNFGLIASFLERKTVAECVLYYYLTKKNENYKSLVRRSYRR
Sequence of HDAC1 (Q13547 whole entry): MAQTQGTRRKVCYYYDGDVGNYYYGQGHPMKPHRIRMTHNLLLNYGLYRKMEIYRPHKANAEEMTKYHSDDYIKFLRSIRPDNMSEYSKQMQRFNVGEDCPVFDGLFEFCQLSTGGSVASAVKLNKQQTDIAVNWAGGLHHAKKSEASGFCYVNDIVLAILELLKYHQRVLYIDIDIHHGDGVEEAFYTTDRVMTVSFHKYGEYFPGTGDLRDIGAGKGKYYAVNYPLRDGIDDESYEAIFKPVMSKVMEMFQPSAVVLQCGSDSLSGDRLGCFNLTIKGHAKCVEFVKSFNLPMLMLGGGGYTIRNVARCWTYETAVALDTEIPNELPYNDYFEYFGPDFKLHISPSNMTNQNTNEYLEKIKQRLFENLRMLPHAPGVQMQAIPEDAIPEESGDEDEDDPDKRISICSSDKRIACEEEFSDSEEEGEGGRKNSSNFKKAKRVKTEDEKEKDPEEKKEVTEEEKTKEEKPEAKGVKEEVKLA

## Cc1[nH]c2ccccc2c1CCNCc1ccc(/C=C/C(=O)NO)cc1 [Panobinostat]
[1]
  on-kinetics, HDAC3: fast-on kinetics
[2]
  mutagenicity, Mini-Ames: Ames positive
[3]
  acetylation of tubulin: completely disappears after 30 min
  histone acetylation after removal of drug: begins to decrease after 1 h
[4]
  on-kinetics, HDAC1: fast-on kinetics
[5]
  number of the 60 cell lines with lethality under 10 μM: 18
[6]
  cleavage of pro-caspase3: observed
[7]
  increase in Hsp70 levels: observed
  pro-caspase3 cleavage: observed

## Cc1[nH]c2ccccc2c1CCNCc1ccc(/C=C/C(=O)NN2CCCCC2)cc1.O=C(O)C(F)(F)F [Compound 26c, (E)-2-(2-methyl-1H-indol-3-yl)-N-(4-(3-oxo-3-(piperidin-1-ylamino)prop-1-en-1-yl)benzyl)ethanaminium 2,2,2-trifluoroacetate]
[8]
  effect on cell proliferation at 50 μM: do not affect cell proliferation

## Cc1[nH]c2ccccc2c1CCNCc1ccc(/C=C/C(=O)NN(CCCO)CCCO)cc1.O=C(O)C(F)(F)F [Compound 30, (E)-N-(4-(3-(2,2-bis(3-hydroxypropyl)hydrazinyl)-3-oxoprop-1-en-1-yl)benzyl)-2-(2-methyl-1H-indol-3-yl)ethanaminium 2,2,2-trifluoroacetate]
[8]
  effect on cell proliferation at 50 μM: do not affect cell proliferation

## Cc1[nH]c2ccccc2c1CCNCc1ccc(/C=C/C(=O)NN2CCCC2)cc1.O=C(O)C(F)(F)F [Compound 26b, (E)-2-(2-methyl-1H-indol-3-yl)-N-(4-(3-oxo-3-(pyrrolidin-1-ylamino)prop-1-en-1-yl)benzyl)ethanaminium 2,2,2-trifluoroacetate]
[8]
  effect on cell proliferation at 50 μM: do not affect cell proliferation

## CCCNNC(=O)c1ccc(CNC(=O)/C=C/c2ccccc2)cc1 [LP411]
[7]
  FLT3 and STAT5 levels: down-regulate
  pro-caspase3 cleavage: observed

## Cc1[nH]c2ccccc2c1CCNCc1ccc(/C=C/C(=O)NN(C)C)cc1.O=C(O)C(F)(F)F [Compound 26a, (E)-N-(4-(3-(2,2-dimethylhydrazinyl)-3-oxoprop-1-en-1-yl)benzyl)-2-(2-methyl-1H-indol-3-yl)ethanaminium 2,2,2-trifluoroacetate]
[8]
  effect on cell proliferation at 50 μM: do not affect cell proliferation

## Nc1ccc2cc3ccccc3cc2c1 [2-aminoanthracene]
[2]
  mutagenicity, Mini-Ames: Ames positive

## Nc1ccccc1NC(=O)c1ccc(CNC(=O)OCc2cccnc2)cc1 [Entinostat, entinostat]
[7]
  pro-caspase3 cleavage: observed

## CCCNNC(=O)/C=C/c1ccc(CNCCc2c(C)[nH]c3ccccc23)cc1.O=C(O)C(F)(F)F [Compound 13a, (E)-2-(2-methyl-1H-indol-3-yl)-N-(4-(3-oxo-3-(2-propylhydrazinyl)prop-1-en-1-yl)benzyl)ethanaminium 2,2,2-trifluoroacetate]
[9]
  inhibition of APN: does not show any inhibition
[2]
  mutagenicity, Mini-Ames: not mutagenic
[3]
  acetylation of tubulin: does not increase the acetylation of tubulin
  histone acetylation after removal of drug: does not decrease within 6 h
[10]
  interaction of 13a with 17-AAG in anti-proliferation activity: antagonized
[5]
  number of the 60 cell lines with lethality under 10 μM: 10
[6]
  cleavage of pro-caspase3: only observed at high dose
[7]
  increase in Hsp70 levels: not observed
  FLT3 and STAT5 levels: down-regulate
  pro-caspase3 cleavage: observed
[11]
  pro-caspase3 cleavage: does not cleave
[12]
  pro-caspase3 cleavage: not cleaved

— article PMC7684764 (Journal of medicinal chemistry, 2020)
